Reference: patent US10344279B2, “Methods for the prevention and the treatment of extracapillary glomerulonephritis” (INSERM (Institut National de la Sante et de la Recherche …, priority 2014, dated 2019)

What was measured:
miR-92a = miR-92a expression in kidney / isolated glomeruli of NTS-challenged mice (in situ hybridization, RT-qPCR); type: in vivo
Description: (§1) The glomerulonephritis was induced on male mice (10-12 weeks of age) by intravenous injection of 15 μL of sheep anti-glomerular basement membrane (GBM) nephrotoxic serum (NTS), which was diluted with 85 μL of sterile phosphate buffer solution. Serum injections were repeated twice (on days 2 and 3) at 6 μL/g of body weight and 7 μL/g respectively.
For miRNA expression analysis, RNA from kidney cortex were prepared with Trizol (Life Technologies) according to manufacturer's instructions. miRNA expression was determined using Taqman miRNA assay (Life technologies) according to manufacturer's protocols. U6 snRNA was used as endogenous control.
In situ hybridization was performed as previously described by Bonaucr et al (66). Briefly, 5 μm-thick kidney paraffin embedded sections were cut and fixed in PFA 4% for 10 min. Then sections were washed with 1× PBS and then acetylated for 10 min. After washes, sections were incubated with […] (Sigma-Aldrich) for 10 min. at 37° C. After washings, sections were incubated with hybridization buffer for 5 h at room temperature. miRNA probes (miR-92a probe double-DIG labeled LNA probes, Exiqon, final concentration 20 nM) was mixed with denaturation buffer and added to the sections followed by incubation over night at 56° C. U6snRNA probe (3′-DIG labeled LAN, probe, Exiqon) was used at 10 nM final concentration and as a positive control. […]

primary podocytes = experiment: Podocyte outgrowth (proliferation) assay from isolated decapsulated glomeruli; type: cell-based, mouse; details: for podocyte outgrowth area / proliferation of cultured primary podocytes: Pod-Stat3 WT podocytes treated with Stattic, quantified at day 4
Description: Mouse kidneys were extracted, minced, and digested in 2 mg/mL collagenase I solution (Gibco) in RPMI 1640 (Invitrogen) at 37° C. for 3 minutes, then filtered through a 70-μm cell strainer and one more through a 40-μm cell strainer. The homogenate was centrifuged at 720 g for 6 minutes and cells plated. Isolated glomeruli were then collected in Phosphosafc extraction buffer (Novagen) for protein extraction or in RLT extraction buffer (Qiagen) for total RNA extraction. For podocyte primary culture, freshly isolated glomeruli were plated in 6-plate dishes in RPMI 1640 (Invitrogen) supplemented by 10% Fetal Calf Serum (Biowest) and 1% penicillin-streptomycin (Invitrogen). The outgrowth of podocytes started between days 2 and 3. Podocyte outgrowth area was quantified at day 4 using ImageJ software. After 4 days of primary culture, podocytes were trypsinized then plated into μ-Dish 35 mm high with Culture-Insert (Ibidi). Ibidi's wounding inserts were used for cell migration studies. The coverage of the 500-μm gap was assessed after 12 hours of culture and podocyte migration area was quantified using ImageJ software. The effects of HB-EGF (10 ng/mL, Preprotech) or AG1478 (1 μM, Calbiochem) or anti-mIL-6 monoclonal antibody MP5-20F3 (10 μg/mL, eBiosciences) or Stattic (2 μM, Calbiochem) on differentiated podocytes was applied during 16 hours. After stimulation, podocytes were scrapped in Phosphosafe buffer for protein extraction or in RLT buffer for total RNA extraction. […] Anti-miR-Control#1 was used as control (All from Ambion, 50 nM).

NTS-challenged mice = experiment: NTS-induced crescentic glomerulonephritis (RPGN): albuminuria, BUN, crescentic glomeruli; type: in vivo
Description: Podocyte-specific disruption of Stat3 mice were generated by crossing podocin-Cre positive mice (63) with Stat3 floxed mice (64) on C57BL6/J background. Their age-matched littermates with no deletion of Stat3 in any cells are considered as controls. […] Stattic (25 mg/kg) was administered in i.p. way every other day for 10 days. 10 weeks old 129S2/SvPasCr male mice were randomly treated with Stattic and were compared to vehicle-treated (DMSO) littermates.
as §1
Urinary creatinine and blood urea nitrogen (BUN) concentrations were analyzed by a standard colorimetric method (Olympus AU400) at the Biochemistry Laboratory of Institut Claude Bernard (IFR2, Faculté de Médecine Paris Diderot). Urinary albumin excretion was measured using a specific ELISA assay for quantitative determination of albumin in mouse urine (CellTrend GmbH).
Kidneys were harvested and fixed in 4% formal. Paraffin-embedded sections (5 μm thick) were stained by Masson's trichrome to evaluate kidney morphology and determine proportion of crescentic glomeruli by a blinded examination on at least 50 glomeruli per section.
For preventive strategy, antagomiR treatment (12 mg/kg) started 3 days before NTS injection. AntagomiRs (VBC biotech, Vienna) were delivered by retro-orbital i.v. injections under brief anesthesia. Second and third injections were performed on days 1 and 3 with NTS injection. For curative strategy, antagomir were injected on days 4, 5 and 8 after NTS. A scramble antagomiR (Antagomir-Control) was used as control. The sequences were obtained from previously published manuscript (66). In the miR-92 antagomir and control antagomir, the 2′O RNA base are methylated followed by first two bases and last 3 bases are phosphorothiated to increase the stability of antagomir from degradation. In addition, a cholesterol-TEG was added at the 3′ for easy entry of antagomir into the cells. AntagomiR-Control (SEQ ID NO: 7, anti-miR-ctrl): 5′-[…]-3′ and antagomiR-92a (SEQ ID NO: 8, anti-miR-92a): 5′-[…]-3′ as shown to be effective after in vivo administration in kidneys (34, 67). Saline-treated mice were used as control of the scramble antagomiR.

[1] = Stattic 25 mg/kg i.p. every other day, day 10 after NTS, 129S2 mice
[2] = antagomiR 12 mg/kg i.v., preventive strategy, 10 days after NTS, vs anti-miR-ctrl or vehicle

Compound	MicroRNA-92a expression in kidney (miR-92a; NTS-challenged Pod-Stat3 WT animals treated with Stattic, in situ hybridization, confirmed by RT-qPCR)	podocyte outgrowth area / proliferation of cultured primary podocytes (primary podocytes)	podocyte outgrowth area / proliferation of cultured primary podocytes (primary podocytes; listed as STAT3 inhibitor)	albuminuria (urinary albumin excretion rate) (NTS-challenged mice; [1])	alleviation of the rise in blood urea nitrogen (BUN) concentrations (NTS-challenged mice; [1]) [%]	proportion of crescentic glomeruli (NTS-challenged mice; [1])	miR-92a expression in isolated glomeruli during RPGN (miR-92a; antagomiR 12 mg/kg i.v. retro-orbital, preventive strategy, 10 days after NTS)	podocyte outgrowth (primary podocytes; anti-miR-92a transfected (50 nM), over 4 days, vs control cells or anti-miR control)	kidney dysfunction (blood urea nitrogen concentrations) (NTS-challenged mice; [2])	urinary albumin excretion (NTS-challenged mice; [2])	glomerular crescents formation (NTS-challenged mice; antagomiR 12 mg/kg i.v., preventive strategy, vs NTS+anti-miR-ctrl, P<0.05) [%]	results in curative strategy (miR-92a expression, albuminuria, BUN, p57-positive cells) (NTS-challenged mice; antagomir injection on days 4, 5 and 8 after NTS, read at day 10)
O=[N+]([O-])c1ccc2c(c1)S(=O)(=O)C=C2 [Stattic]	not increased	inhibited	significantly reduced	trend to decreased	50	reduced	–	–	–	–	–	–
anti-miR-92a: 2′O-methylated, end-phosphorothioated antagomir with 3′ cholesterol-TEG, SEQ ID NO: 8, 5′-CAGGCCGGGACAAGUGCAAUA-3′ (VBC biotech) (listed as RNA, chemistry not fully specified)	–	–	–	–	–	–	specific inhibition	decrease	strong decrease	strong decrease	-44	validated
